pEC50: −log10 of the molar value. Read-outs that look alike come from different tables or passages of the source.
Legend:
[1] = biological target: GABAa receptor (α1β2γ2) (Homo sapiens, UniProt P14867+P47870); assay: in vitro GABAa receptor (α1β2γ2) cellular activity assay, manual whole-cell patch clamp, enhancement of currents induced by 1 µM GABA; type: cell-based; details: for Emax compared to Sage-217: conclusion in words from Table 1-2
Procedure: The cells used in this experiment were derived from a CHO cell line that stably expressed normal GABAa receptor functions after transfection with human GABAa receptor α1, β2, and γ2 subunit cDNAs. The cell line was constructed by B'sys GmbH. The cells were cultured in a medium (purchased from Invitrogen) containing the following components: DMEM culture medium; 10% (v/v) inactivated fetal bovine serum; 5 µg/mL Puromycin; 250 µg/mL Hygromycin B; and 100 µg/mL Zeocin. The cells were grown in culture dishes containing the above medium and cultured in an incubator at 37 °C with 5% CO2. 12 h to 24 h before the electrophysiological experiment, the cells were transferred onto circular glass slides placed in culture dishes, and were grown under the same medium and culture conditions as above. The density of cells on each circular glass slide was required to meet the requirement that the overwhelming majority of cells were independent and individual.
In this experiment, a manual patch-clamp system HEKA EPC10 USB signal amplifier and digital conversion system (purchased from HEKA Electronics, Germany) were used for whole-cell current recording. The circular glass slides with surface-grown CHO GABAa cells (see the cell culture and requirement section above) were taken out from the culture dishes and then placed into an electrophysiological recording chamber under an inverted microscope. The recording chamber was continuously perfused with extracellular fluid (approximately 1-2 mL/min). In the experiment, the whole-cell current recording technique was employed to record chloride ion currents of GABAa channels. 1 µM GABA was used to activate chloride ion currents of GABAa channels on each cell as an initial control (the reason for using 1 µM GABA concentration was that: this concentration was an effective activation concentration for the GABAa ion channel agonist GABA on the cells used in this experiment, falling between 10% and 20%). Unless otherwise specified, the experiment was performed at conventional room temperature (about 25 °C), and only cells meeting the electrophysiological recording criteria were adopted. In the experiment, the cells were ruptured and sealed, and were clamped at -80 mV after entering a whole-cell state. 1 µM GABA acted on the cells through the drug perfusion system to induce chloride ion currents of GABAa channels; the action time was about 4 s, and the current magnitude was used as the initial control value. Subsequently, the cells were perfused and incubated with the test concentration compound for 3 min, and then a mixed solution of 1 µM GABA and the corresponding test concentration compound was applied to act on the cells to induce currents, so as to observe the enhancing effect of the test compound on the currents induced by 1 µM GABA. When the cell state stabilized, the test compound would be applied from low to high concentrations to act on the same cell. In the experiment, to avoid current reduction caused by desensitization of GABAa ion channels, the interval time for the test substance acting on the cells through the drug perfusion system was at least 180 s.
The experimental data were analyzed using data analysis software provided by HEKA Patchmaster, Microsoft Excel, and Graphpad Prism.

[2] = system: ICR mice; assay: acute toxicity experiment and side effect observation in mice; type: in vivo; details: for clinical symptoms / death: 4-8 h post-administration; for cage-side observations / main adverse reactions / tolerability: single oral administration, 2.5 to 20 mg/kg
Procedure: (§1) This experiment aimed to evaluate the acute toxic manifestations of the test compounds following single oral intragastric administration in ICR mice, observe the recovery status of the ICR mice within 14 days post-administration, and determine the maximum tolerated dose of the test compounds.
(§2) 65 male and 65 female ICR mice were purchased from Shanghai Jihui Laboratory Animal Care Co., Ltd. After 4-5 days of acclimatization of the experimental animals, the formal experiment was carried out. The mice were housed at 5 mice/cage in a 12/12-hour light/dark cycle at a room temperature of 23±2 °C, with free access to food and water.
(§3) Based on the Vehicle in section 2.4, a certain weight of the test compound was weighed, 5% of the total volume of a DMSO liquid was first added, and the mixture was vortexed. After the drug was completely dissolved, 5% of the total volume of an HS-15 liquid was added, and the mixture was well mixed and vortexed. Finally, a 20% hydroxypropyl-β-cyclodextrin solution was added according to the remaining volume proportion, forming a 2 mg/mL clear and homogeneous solution. The solution was then proportionally diluted in a gradient to concentrations of 1 mg/mL, 0.5 mg/mL, and 0.25 mg/mL (the administration volume was 10 mL/kg).
(§4) • a. About 12-18 h before testing, animals were weighed and then grouped, and fasted overnight (water was accessible). • b. The next day, the mice were reweighed according to groups. Ten mice per group (5 males and 5 females/dose) were subjected to oral intragastric administration of the test compound or Vehicle. The day of administration was designated as Day 1. • c. […] Observation period for Day 2 to Day 14: 9:00 to 12:00.
(§5) • (1) The clinical symptoms and mortality in each group of ICR mice post-administration were recorded to determine the maximum tolerated dose. • (2) The symptom alleviation and recovery status in each group of ICR mice post-administration were recorded.

[3] = as above; type: in vivo, ICR mice; details: both sexes, ICR, mouse, in vivo; single oral intragastric administration at 2.5, 5, 10, 20 mg/kg; 14 days observation; read-out: maximum tolerated dose (MTD)
Procedure: as §1, §2, §3, §4, §5

[4] = in vivo pharmacokinetic experiment in mice; parameters: species or system ICR mice; details: male, ICR, mouse; oral intragastric administration 10 mg/kg, single, plasma
Procedure: Male ICR mice were subjected to oral intragastric administration. The plasma concentrations of the compounds of the present disclosure in the mice were measured, the PK parameters were calculated, and pharmacokinetic evaluation was performed on the compounds of the present disclosure.
Drug preparation: according to the weight of the weighed drug, the preparation volume was calculated; 5% of DMSO and 5% of HS-15 were added sequentially; after the drug was fully dissolved, 90% of a 20% aqueous β-cyclodextrin solution was added, and the mixture was well mixed for later use.
Route of administration: oral intragastric administration, at a dose of 10 mg/kg.
Administration frequency and duration: single administration.
ICR mice were stratified according to body weight and then randomly grouped, with 9 mice per group. The mice were fasted overnight prior to the experiment. The mice were subjected to oral intragastric administration. At 0 h, 0.167 h, 0.333 h, 0.5 h, 1 h, 2 h, 4 h, 6 h, 8 h, 12 h, and 24 h, 50 µL of blood was collected from the fundus vein of each mouse into a sample tube containing heparin sodium as an anticoagulant, and then the tube was placed in wet ice and centrifuged at 4000 r·min^-1 for 10 min. The plasma was separated, and cryopreserved in a refrigerator at -80 °C for testing.
The concentrations of the plasma samples were measured by high-performance liquid chromatography-tandem mass spectrometry (LC-MS/MS). The retention times of the compounds and internal standard, chromatographic acquisitions, and integrals of chromatograms were processed using the software Analyst (AB SCIEX), and statistical analysis of the data was performed using the software Microsoft office. The plasma concentrations were processed using a non-compartmental model of the pharmacokinetic software WinNonlin™ Version 6.3 (Pharsight, Mountain View, CA), and the pharmacokinetic parameters were calculated using a linear log-trapezoidal method. Table 4. Results of pharmacokinetic experiment in mice

[5] = positive modulator enhancing GABAa receptor currents induced by 1 µM GABA, CHO cells, read-out: EC50
[6] = all dose groups (2.5/5/10/20 mg/kg)

Sequence of GABAa receptor (α1β2γ2) (P14867 28-456): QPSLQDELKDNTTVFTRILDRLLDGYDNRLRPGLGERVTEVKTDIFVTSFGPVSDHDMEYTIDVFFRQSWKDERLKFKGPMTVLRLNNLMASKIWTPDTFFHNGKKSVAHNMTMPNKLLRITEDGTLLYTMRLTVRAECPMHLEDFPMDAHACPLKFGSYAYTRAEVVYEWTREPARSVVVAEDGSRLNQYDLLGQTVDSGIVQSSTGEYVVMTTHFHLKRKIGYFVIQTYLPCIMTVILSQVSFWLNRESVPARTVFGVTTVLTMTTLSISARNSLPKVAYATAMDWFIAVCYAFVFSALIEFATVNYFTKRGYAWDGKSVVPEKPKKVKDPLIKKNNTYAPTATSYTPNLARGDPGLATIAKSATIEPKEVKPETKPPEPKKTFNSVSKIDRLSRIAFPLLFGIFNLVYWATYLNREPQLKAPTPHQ
Sequence of GABAa receptor (α1β2γ2) (P47870 25-512 limits assumed): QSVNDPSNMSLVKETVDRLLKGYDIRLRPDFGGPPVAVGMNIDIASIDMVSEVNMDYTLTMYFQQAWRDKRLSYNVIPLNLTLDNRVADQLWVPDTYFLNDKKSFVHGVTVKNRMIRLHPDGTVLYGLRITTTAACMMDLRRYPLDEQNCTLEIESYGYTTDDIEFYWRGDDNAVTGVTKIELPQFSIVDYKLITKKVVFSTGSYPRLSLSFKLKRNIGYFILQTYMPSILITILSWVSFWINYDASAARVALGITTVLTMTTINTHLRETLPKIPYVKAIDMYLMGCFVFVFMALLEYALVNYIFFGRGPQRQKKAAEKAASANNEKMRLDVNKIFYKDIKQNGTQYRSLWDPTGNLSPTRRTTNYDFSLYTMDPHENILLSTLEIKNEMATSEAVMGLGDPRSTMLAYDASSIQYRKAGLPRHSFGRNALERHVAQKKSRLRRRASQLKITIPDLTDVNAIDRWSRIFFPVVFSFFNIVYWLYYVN
Sequence of GABAa receptor (α1β2γ2) (P18507 40-475 partner): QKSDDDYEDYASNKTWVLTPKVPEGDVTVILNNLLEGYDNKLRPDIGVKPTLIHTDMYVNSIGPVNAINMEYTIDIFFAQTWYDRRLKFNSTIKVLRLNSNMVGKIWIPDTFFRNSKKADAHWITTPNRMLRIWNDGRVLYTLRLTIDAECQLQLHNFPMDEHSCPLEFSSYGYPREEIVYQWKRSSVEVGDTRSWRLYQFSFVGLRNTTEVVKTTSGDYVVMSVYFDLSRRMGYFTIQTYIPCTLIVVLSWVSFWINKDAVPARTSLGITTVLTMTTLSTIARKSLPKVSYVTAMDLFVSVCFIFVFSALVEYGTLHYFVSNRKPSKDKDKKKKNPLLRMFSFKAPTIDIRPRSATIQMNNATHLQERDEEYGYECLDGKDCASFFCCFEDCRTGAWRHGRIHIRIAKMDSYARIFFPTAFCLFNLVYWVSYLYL

Row | SMILES | Emax compared to Sage-217 [1] | pEC50 [1, 5] | clinical symptoms ([2]; 20 mpk group) | death [2, 6] | clinical symptoms ([2]; all lower dose groups (below 20 mpk)) | cage-side observations / main adverse reactions [2] | tolerability [2] | MTD at 14 days [3] [mg/kg] | AUC(0-t) [4] [µg·h/mL] | Cmax [4] [µg/mL] | Tmax [4] [h] | half-life [4] [h] | activation at 0.1 µM ([1]; single concentration 0.1 µM, relative enhancement amplitude of GABAa receptor currents induced by 1 µM GABA, CHO cells, read-out: Agonist ratio) [%] | pEC50 [1] | mortality ([2]; 20 mg/kg group, single oral intragastric administration) | death ([2]; 20 mpk group, 5 males and 5 females)
1 | C[C@@H]1C[C@H](C(=O)Cn2ncnn2)[C@@]2(C)CC[C@H]3[C@@H](CC[C@@H]4C[C@](C)(O)[C@@H](C)C[C@@H]43)[C@H]12 [Example 9, 1-((2S,3S,5R,8R,9R,10S,13S,14S,15R,17S)-3-Hydroxy-2,3,13,15-tetramethylhexadecahydro-1H-cyclopenta[a]phenanthren-17-yl)-2-(2H-tetrazol-2-yl)ethan-1-one] | lower Emax compared to Sage-217 | 7.40 | gait instability | no death occurred | returned to normal | prostration and mild loss of righting reflex observed in some of the mice at high doses | all animals could tolerate it | 20 | 23.6 | 3.48 | 0.33 | 2.35 | – | – | – | –
2 | C[C@H]1C[C@H]2[C@H](CC[C@@H]3[C@@H]2CC[C@]2(C)[C@@H](C(=O)Cn4ncnn4)CC[C@@H]32)C[C@]1(C)O [Example 20, 1-((2S,3S,5R,8R,9R,10S,13S,14S,17S)-3-Hydroxy-2,3,13-trimethylhexadecahydro-1H-cyclopenta[a]phenanthren-17-yl)-2-(2H-tetrazol-2-yl)ethan-1-one] | lower Emax compared to Sage-217 | 6.96 | – | no death occurred | – | ataxia that aggravated with the increase of dose | all animals could tolerate it | 20 | 32.2 | 2.58 | 0.5 | 2.59 | 970 | – | – | –
3 | C[C@@]1(O)CC[C@H]2[C@H](CC[C@@H]3[C@@H]2CC[C@]2(C)[C@@H](C(=O)Cn4cc(C#N)cn4)CC[C@@H]32)C1 [Sage-217, reference compound] | – | – | prostration symptoms | – | – | ataxia that aggravated with the increase of dose, as well as severe loss of righting reflex observed at high doses | – | 10 | 9.16 | 1.51 | 1 | – | – | 6.92 | mortality was observed in both male and female mice | 1 male and 2 female mice died

From patent EP4711377A1, “STEROID COMPOUND, PREPARATION METHOD THEREFOR, AND USE THEREOF” (Shujing Biopharma Co., Ltd, priority 2023, dated 2024)
